Earlier results, collected in US20120316496A1, “USE OF COMPOSITIONS TO COAT CATHETER BALLOONS AND COATED CATHETER BALLOONS” (priority 2009, published 2012).

details: at 20° C.

vapor pressure | SMILES
20 Pa | CC12CCC(CC1=O)C2(C)C (stereo not shown) [Camphor]
250 Pa | C[S+](C)[O-] [DMSO, dimethyl sulfoxide]
9700 Pa | CCOC(C)=O [Ethyl acetate]

SMILES | vapor pressure
OCCO [Ethylene glycol] | 5,3 Pa
